Laboratory results as given in ChEMBL document CHEMBL1144419, “N-terminal fatty acylated His-dPhe-Arg-Trp-NH(2) tetrapeptides: influence of fatty acid chain length on potency and selectivity at the mouse melanocortin receptors and human melanocytes” (J Med Chem, 2005).

Assays:
Type in all cases: functional
Melanocortin receptor 5 = Melanocortin receptor 5 (Mus musculus, UniProt P41149); assay: In vitro agonist potency for Mouse Melanocortin 5 receptor
[1] = biological target: Melanocyte-stimulating hormone receptor (Mus musculus, UniProt Q01727); assay: In vitro agonist potency for Mouse Melanocortin 1 receptor
Melanocyte-stimulating hormone receptor, sequence (Q01727 whole entry): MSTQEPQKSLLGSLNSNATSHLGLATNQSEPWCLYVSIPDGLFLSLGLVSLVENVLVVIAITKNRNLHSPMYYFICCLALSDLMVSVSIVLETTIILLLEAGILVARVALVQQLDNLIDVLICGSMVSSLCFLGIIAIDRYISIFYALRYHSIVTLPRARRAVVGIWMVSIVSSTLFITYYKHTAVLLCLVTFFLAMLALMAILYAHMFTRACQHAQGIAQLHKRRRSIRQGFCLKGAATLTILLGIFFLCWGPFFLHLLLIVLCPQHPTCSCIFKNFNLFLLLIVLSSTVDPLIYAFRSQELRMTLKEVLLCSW

Melanocortin receptor 3 = Melanocortin receptor 3 (Mus musculus, UniProt P33033); assay: In vitro agonist potency for Mouse Melanocortin 3 receptor
Melanocortin receptor 3, sequence (P33033 whole entry): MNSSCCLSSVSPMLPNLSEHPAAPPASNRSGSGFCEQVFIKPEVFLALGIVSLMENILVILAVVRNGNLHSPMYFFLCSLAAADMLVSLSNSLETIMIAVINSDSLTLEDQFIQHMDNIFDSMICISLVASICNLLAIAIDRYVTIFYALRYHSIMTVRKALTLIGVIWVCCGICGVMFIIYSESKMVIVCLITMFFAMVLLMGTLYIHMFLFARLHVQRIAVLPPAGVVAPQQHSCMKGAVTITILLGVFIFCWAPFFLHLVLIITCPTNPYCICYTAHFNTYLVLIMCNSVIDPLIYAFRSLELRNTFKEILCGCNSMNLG

Melanocortin receptor 4 = Melanocortin receptor 4 (Mus musculus, UniProt P56450); assay: In vitro agonist potency for Mouse Melanocortin 4 receptor
Melanocortin receptor 4, sequence (P56450 whole entry): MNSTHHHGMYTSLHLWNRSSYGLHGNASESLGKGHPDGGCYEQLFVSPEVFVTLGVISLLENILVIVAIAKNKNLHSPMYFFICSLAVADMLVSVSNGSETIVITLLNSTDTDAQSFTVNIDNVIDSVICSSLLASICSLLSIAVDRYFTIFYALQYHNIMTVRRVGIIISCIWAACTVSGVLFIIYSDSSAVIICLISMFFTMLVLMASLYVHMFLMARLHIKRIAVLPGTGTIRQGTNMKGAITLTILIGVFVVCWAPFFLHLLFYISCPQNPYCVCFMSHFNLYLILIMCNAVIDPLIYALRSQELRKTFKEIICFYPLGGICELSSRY

Melanocortin receptor 5, sequence (P41149 whole entry): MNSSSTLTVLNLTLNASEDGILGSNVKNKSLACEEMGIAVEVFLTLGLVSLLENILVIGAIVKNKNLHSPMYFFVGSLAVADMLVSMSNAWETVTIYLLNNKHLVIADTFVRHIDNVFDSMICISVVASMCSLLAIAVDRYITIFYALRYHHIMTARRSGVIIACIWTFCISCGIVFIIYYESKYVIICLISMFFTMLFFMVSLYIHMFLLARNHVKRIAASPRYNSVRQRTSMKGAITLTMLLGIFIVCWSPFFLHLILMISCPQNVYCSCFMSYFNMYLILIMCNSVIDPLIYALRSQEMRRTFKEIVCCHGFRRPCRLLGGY

SMILES	EC50 (Melanocortin receptor 5)	EC50 [1]	EC50 (Melanocortin receptor 3)	EC50 (Melanocortin receptor 4)
CCCCCCCCCCCCC(=O)N[C@@H](Cc1cnc[nH]1)C(=O)N[C@H](Cc1ccccc1)C(=O)N[C@@H](CCCNC(=N)N)C(=O)N[C@@H](Cc1c[nH]c2ccccc12)C(N)=O	4.43 nM	0.94 nM	139 nM	20.6 nM
CCCCCCCC(=O)N[C@@H](Cc1c[nH]cn1)C(=O)N[C@H](Cc1ccccc1)C(=O)N[C@@H](CCCN=C(N)N)C(=O)N[C@@H](Cc1c[nH]c2ccccc12)C(N)=O	0.57 nM	0.33 nM	9.29 nM	2.52 nM
CCCCCCCCCCCCCCCCC(=O)N[C@@H](Cc1c[nH]cn1)C(=O)N[C@H](Cc1ccccc1)C(=O)N[C@@H](CCCN=C(N)N)C(=O)N[C@@H](Cc1c[nH]c2ccccc12)C(N)=O	2.82 nM	0.72 nM	266 nM	21.4 nM
CCCCCCCCCCCCCCC(=O)N[C@@H](Cc1c[nH]cn1)C(=O)N[C@H](Cc1ccccc1)C(=O)N[C@@H](CCCN=C(N)N)C(=O)N[C@@H](Cc1c[nH]c2ccccc12)C(N)=O	3.02 nM	2.07 nM	134 nM	13.2 nM
CCCCCCCCCCC(=O)N[C@@H](Cc1cnc[nH]1)C(=O)N[C@H](Cc1ccccc1)C(=O)N[C@@H](CCCNC(=N)N)C(=O)N[C@@H](Cc1c[nH]c2ccccc12)C(N)=O	10 nM	2.8 nM	102 nM	19 nM
CCCCCCCCC(=O)N[C@@H](Cc1cnc[nH]1)C(=O)N[C@H](Cc1ccccc1)C(=O)N[C@@H](CCCNC(=N)N)C(=O)N[C@@H](Cc1c[nH]c2ccccc12)C(N)=O	0.88 nM	0.4 nM	5.1 nM	1.14 nM
CC(=O)N[C@@H](Cc1cnc[nH]1)C(=O)N[C@H](Cc1ccccc1)C(=O)N[C@@H](CCCN=C(N)N)C(=O)N[C@@H](Cc1c[nH]c2ccccc12)C(N)=O				10.7 nM
CCCCCCCCCCCCCCCC(=O)N[C@@H](Cc1cnc[nH]1)C(=O)N[C@H](Cc1ccccc1)C(=O)N[C@@H](CCCNC(=N)N)C(=O)N[C@@H](Cc1c[nH]c2ccccc12)C(N)=O	2.99 nM	0.99 nM	154 nM	26.6 nM
N=C(N)NCCC[C@H](NC(=O)[C@@H](Cc1ccccc1)NC(=O)[C@@H](N)Cc1cnc[nH]1)C(=O)N[C@@H](Cc1c[nH]c2ccccc12)C(N)=O	2.78 nM	67 nM	250 nM	18.5 nM
CCCCCCCCCCCCCC(=O)N[C@@H](Cc1c[nH]cn1)C(=O)N[C@H](Cc1ccccc1)C(=O)N[C@@H](CCCN=C(N)N)C(=O)N[C@@H](Cc1c[nH]c2ccccc12)C(N)=O	3.39 nM	0.58 nM	220 nM	10.5 nM
CCCCCCCCCC(=O)N[C@@H](Cc1c[nH]cn1)C(=O)N[C@H](Cc1ccccc1)C(=O)N[C@@H](CCCN=C(N)N)C(=O)N[C@@H](Cc1c[nH]c2ccccc12)C(N)=O	4.83 nM	3.34 nM	44.8 nM	14.4 nM
